Experimental data taken from BindingDB's records for doi:10.1016/0960-894X(95)00361-V (Sphinx Pharmaceuticals, 1995).

Experiments:
Assay in all cases: PKC assay
[1] = molecular target: Protein kinase C alpha type (Homo sapiens, UniProt P17252)
Method: (§1) The activity of PKC, activated by phosphatidylerine and Ca2+, is measured by its ability to transfer phosphate from [gamma-32P]ATP to lysine-rich histone.

[2] = molecular target: Protein kinase C eta type (Homo sapiens, UniProt P24723)
Method: as §1

[3] = molecular target: Protein kinase C beta type (Homo sapiens, UniProt P05771)
Method: as §1

[4] = molecular target: T1, Protein kinase C epsilon type (Homo sapiens, UniProt Q02156)
T1 sequence (Q02156 whole entry): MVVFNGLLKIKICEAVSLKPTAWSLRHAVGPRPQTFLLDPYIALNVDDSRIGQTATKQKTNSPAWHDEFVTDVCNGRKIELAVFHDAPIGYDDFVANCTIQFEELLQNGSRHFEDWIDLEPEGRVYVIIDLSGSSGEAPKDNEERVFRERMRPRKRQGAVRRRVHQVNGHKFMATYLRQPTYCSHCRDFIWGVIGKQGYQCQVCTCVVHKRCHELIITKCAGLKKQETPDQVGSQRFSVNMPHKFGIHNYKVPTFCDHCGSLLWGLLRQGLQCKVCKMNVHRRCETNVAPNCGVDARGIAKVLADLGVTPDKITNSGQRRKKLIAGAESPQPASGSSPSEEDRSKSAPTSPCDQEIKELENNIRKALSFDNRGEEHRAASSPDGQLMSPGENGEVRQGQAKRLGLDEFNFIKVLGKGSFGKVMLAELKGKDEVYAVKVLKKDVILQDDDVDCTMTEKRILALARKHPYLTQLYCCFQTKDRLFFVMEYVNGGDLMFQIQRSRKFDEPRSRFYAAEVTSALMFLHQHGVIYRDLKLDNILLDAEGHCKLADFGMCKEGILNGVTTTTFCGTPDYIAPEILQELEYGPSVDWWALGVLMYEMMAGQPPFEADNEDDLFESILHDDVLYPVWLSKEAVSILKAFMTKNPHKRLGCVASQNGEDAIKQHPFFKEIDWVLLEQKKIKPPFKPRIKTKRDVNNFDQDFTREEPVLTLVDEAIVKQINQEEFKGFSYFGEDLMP
Method: as §1

[5] = molecular target: Protein kinase C delta type (Homo sapiens, UniProt Q05655)
Method: as §1

Protein kinase C eta type, sequence (P24723 whole entry): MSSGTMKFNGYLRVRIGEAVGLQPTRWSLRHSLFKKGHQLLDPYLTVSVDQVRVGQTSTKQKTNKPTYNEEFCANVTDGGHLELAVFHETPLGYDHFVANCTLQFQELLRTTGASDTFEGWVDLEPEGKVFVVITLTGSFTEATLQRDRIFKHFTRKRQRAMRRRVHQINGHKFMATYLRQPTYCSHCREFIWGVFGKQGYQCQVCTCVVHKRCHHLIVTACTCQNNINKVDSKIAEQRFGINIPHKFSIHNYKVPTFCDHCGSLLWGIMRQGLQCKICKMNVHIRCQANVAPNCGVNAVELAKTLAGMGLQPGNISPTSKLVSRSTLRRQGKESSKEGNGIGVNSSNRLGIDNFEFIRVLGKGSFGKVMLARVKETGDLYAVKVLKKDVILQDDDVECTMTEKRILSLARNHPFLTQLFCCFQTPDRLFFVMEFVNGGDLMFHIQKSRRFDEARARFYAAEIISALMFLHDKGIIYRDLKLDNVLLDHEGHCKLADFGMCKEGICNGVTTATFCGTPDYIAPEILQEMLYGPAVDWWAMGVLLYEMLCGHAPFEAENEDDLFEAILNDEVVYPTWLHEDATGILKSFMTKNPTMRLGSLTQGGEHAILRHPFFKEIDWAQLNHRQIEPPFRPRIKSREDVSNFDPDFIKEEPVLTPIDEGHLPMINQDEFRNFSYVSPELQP
Protein kinase C delta type, sequence (Q05655 whole entry): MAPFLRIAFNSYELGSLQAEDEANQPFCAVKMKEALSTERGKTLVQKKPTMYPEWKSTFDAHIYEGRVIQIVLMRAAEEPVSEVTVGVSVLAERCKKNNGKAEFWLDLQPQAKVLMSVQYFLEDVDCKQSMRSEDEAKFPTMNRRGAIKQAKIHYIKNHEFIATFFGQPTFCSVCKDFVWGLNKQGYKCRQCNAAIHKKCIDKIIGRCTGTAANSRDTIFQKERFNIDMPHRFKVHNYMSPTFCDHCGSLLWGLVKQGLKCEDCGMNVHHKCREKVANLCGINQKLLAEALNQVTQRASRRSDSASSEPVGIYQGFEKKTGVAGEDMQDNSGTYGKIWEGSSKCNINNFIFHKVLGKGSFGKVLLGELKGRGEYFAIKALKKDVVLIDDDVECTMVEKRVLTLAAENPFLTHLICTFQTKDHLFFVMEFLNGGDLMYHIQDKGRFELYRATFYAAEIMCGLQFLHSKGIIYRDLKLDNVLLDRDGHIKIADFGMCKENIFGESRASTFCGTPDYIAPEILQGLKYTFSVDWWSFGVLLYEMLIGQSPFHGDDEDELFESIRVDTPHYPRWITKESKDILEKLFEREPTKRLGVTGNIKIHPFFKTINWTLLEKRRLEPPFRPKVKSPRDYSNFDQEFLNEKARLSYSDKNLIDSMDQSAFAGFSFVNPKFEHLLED
Protein kinase C beta type, sequence (P05771 whole entry): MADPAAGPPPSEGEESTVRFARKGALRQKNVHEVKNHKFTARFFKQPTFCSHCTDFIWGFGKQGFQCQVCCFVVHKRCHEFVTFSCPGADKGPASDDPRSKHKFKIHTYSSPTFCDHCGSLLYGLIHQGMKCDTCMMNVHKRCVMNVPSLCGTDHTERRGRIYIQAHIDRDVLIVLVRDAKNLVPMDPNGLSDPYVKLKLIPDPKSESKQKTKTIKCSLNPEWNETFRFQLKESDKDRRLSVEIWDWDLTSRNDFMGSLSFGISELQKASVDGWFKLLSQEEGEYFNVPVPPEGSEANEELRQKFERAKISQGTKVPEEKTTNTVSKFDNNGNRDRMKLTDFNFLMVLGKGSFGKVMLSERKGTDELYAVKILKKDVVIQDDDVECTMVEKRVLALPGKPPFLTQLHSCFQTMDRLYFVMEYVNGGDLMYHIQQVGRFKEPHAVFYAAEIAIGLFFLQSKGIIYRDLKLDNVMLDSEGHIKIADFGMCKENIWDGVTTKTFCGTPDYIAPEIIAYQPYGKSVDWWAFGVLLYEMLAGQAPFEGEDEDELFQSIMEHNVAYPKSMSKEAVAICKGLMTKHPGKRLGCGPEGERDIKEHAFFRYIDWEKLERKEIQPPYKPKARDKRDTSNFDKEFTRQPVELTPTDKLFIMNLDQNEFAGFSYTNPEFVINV

Structure (SMILES)	IC50 [1] [nM]	IC50 [2] [nM]	IC50 [3] [nM]	IC50 [4] [nM]	IC50 [5] [nM]
COC(=O)c1cccc(O)c1Oc1c(O)cc(C(=O)O[C@@H]2CCC[C@H]2NC(=O)c2ccc(O)cc2)cc1O [(1R,2R)-2-[(4-hydroxybenzene)amido]cyclopentyl 3,5-dihydroxy-4-[2-hydroxy-6-(methoxycarbonyl)phenoxy]benzoate]	210	4	40	300	5
COC(=O)c1cccc(O)c1Oc1c(O)cc(C(=O)O[C@H]2CCC[C@@H]2NC(=O)c2ccc(O)cc2)cc1O [(1S,2S)-2-[(4-hydroxybenzene)amido]cyclopentyl 3,5-dihydroxy-4-[2-hydroxy-6-(methoxycarbonyl)phenoxy]benzoate]	4200	400	1800	20000	250
